Data: patent US8940785B2, “Association between 4-{3-[cis-hexahydrocyclopenta[c]pyrrol-2(1H)-yl]propoxy}benzamide and an acetylcholinesterase inhibitor, and pharmaceutical compositions containing it” (priority 2011, dated 2015)
Where a name gives a salt, the structure may show the parent alone. Read-outs that look alike come from different tables or passages of the source.

Columns and labels:
[1] = system: middle-aged (14-15 months old) C57B16 mouse; assay: contextual serial discrimination test (model of episodic memory); type: in vivo; settings: chronic treatment for 9 days; for power of contextual memory (correct responses−interfering responses): carrier −28%
From the text: The effects of 4-{3-[cis-hexahydrocyclopenta[c]pyrrol-2(1H)-yl]propoxy}benzamide and donepezil (both in the form of a hydrochloride), administered on their own or in combination, were studied using a contextual serial discrimination test in the middle-aged (14-15 months old) C57B16 mouse (n=12 per group) (Célérier et al., Learn Mem., 2004, 11(2), 196-204; Tronche et al., Behav. Brain Res., 2010, 215(2): 255-60). […] This model is relevant for evaluating the effects of products in Alzheimer's disease because patients suffering from that form of dementia also have disturbances of contextual episodic memory, this being the case from a very early stage (Gold and Budson, Expert Rev Neurother., 2008, 8(12): 1879-1891).
The mice, placed in a box with raised edges, learn two types of consecutive spatial discrimination (D1: white floor, then D2: black floor) on a floor with four holes, in which just one of the holes is baited, the arrangement being opposite in D1 and in D2 (see FIG. 1). Each discrimination is performed on a specific floor (black or white), which constitutes the internal context specific to each discrimination. 24 hours after the learning step, the mice are returned to the white contextual floor, and the following are measured: • the percentage of correct responses (i.e. % of lowering the head into the hole that was baited during the learning exercise on the white floor), • the percentage of interfering responses (i.e. % of lowering the head into the hole that was baited during the learning exercise on the black floor, the last context presented to the mice), • and the percentage of errors (i.e. % of lowering the head into the two holes that were not baited during learning, whether on the white floor or on the black floor (see FIG. 1).
The effects of 4-{3-[cis-hexahydrocyclopenta[c]pyrrol-2(1H)-yl]propoxy}benzamide and rivastigmine (used in the form of a hydrogen tartrate), administered on their own or in combination, were studied using the contextual serial discrimination test in the middle-aged C57B16 mouse described in the Example above.
The effects of 4-{3-[cis-hexahydrocyclopenta[c]pyrrol-2(1H)-yl]propoxy}benzamide and galantamine (used in the form of a hydrobromide), administered on their own or in combination, were also studied using the contextual serial discrimination test in the middle-aged C57B16 mouse.

C57B16 mouse = settings: administered on its own
Experimental: The effects, in terms of safety, of 4-{3-[cis-hexahydrocyclopenta[c]pyrrol-2(1H)-yl]propoxy}-benzamide and donepezil (both in the form of a hydrochloride), administered on their own or in association, were studied using Irwin's primary observation test in the C57B16 mouse (n=4 individuals per group).
Behavioural changes, physiological and neurotoxic symptoms, rectal temperature and pupil diameter were recorded using a standardised observation grid derived from that of Irwin.

NC(=O)c1ccc(OCCCN2C[C@H]3CCC[C@H]3C2)cc1 [4-{3-[cis-hexahydrocyclopenta[c]pyrrol-2(1H)-yl]propoxy}benzamide]
increase in the level of correct responses compared to the carrier ([1]; Example A, FIG. 2, 0.3 mg/kg of base per os): more than 60% | increase in the level of correct responses compared to the carrier ([1]; Example A, FIG. 2, 1 mg/kg of base per os): more than 60% | power of contextual memory (correct responses−interfering responses) ([1]; Example B, FIG. 4, 0.3 mg/kg of base per os): +6% | power of contextual memory (correct responses−interfering responses) ([1]; Example B, FIG. 4, 1 mg/kg of base per os): +10% | power of contextual memory (correct responses−interfering responses) ([1]; Example C, FIG. 5, 0.3 mg/kg of base per os): −3% | power of contextual memory (correct responses−interfering responses) ([1]; Example C, FIG. 5, 1 mg/kg of base per os): +9% | observable changes in Irwin's test (C57B16 mouse; 0.3 and 1 mg/kg of base per os): no observable changes

COc1cc2c(cc1OC)C(=O)C(CC1CCN(Cc3ccccc3)CC1)C2 (stereo not drawn) [donepezil hydrochloride, donepezil]
percentage of correct responses compared to the carrier ([1]; Example A, FIG. 2, donepezil hydrochloride 0.1 mg/kg of base per os, tested 24 hours after learning): no significant improvement | observable changes in Irwin's test (C57B16 mouse; donepezil 1 mg/kg of base per os (strongest dose)): reduces reactivity to touch and causes slight sedation | observable changes in Irwin's test (C57B16 mouse; donepezil 0.1 and 0.3 mg/kg of base per os): no observable changes

COc1ccc2c3c1O[C@H]1C[C@@H](O)C=C[C@@]31CCN(C)C2 [galantamine, reference compound]
power of contextual memory (correct responses−interfering responses) ([1]; Example C, FIG. 5, galantamine 0.3 mg/kg of base per os): −18%

CCN(C)C(=O)Oc1cccc([C@H](C)N(C)C)c1 [rivastigmine, reference compound]
power of contextual memory (correct responses−interfering responses) ([1]; Example B, FIG. 4, rivastigmine 0.1 mg/kg of base per os): −9%
